Assay results taken from US12404283B2, “c-MYC mRNA translation modulators and uses thereof in the treatment of cancer” (Anima Biotech Inc., priority 2022, dated 2025).

Test system: c-Myc
Test: c-Myc immunofluorescence assay
Format: cell-based, human
Details: A549 cells, 24 hours treatment, anti-c-Myc immunofluorescence
Method in brief: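 A549 cells grown 48 h, exposed 24 h to rising compound concentrations, then fixed, permeabilised and stained for c-Myc plus DAPI. Nuclear-segmented c-Myc fluorescence quantified by high-content imaging at 20×; EC50 from logistic dose–response fits.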

## CCN(CC)CCCNC(=O)c1ccc2c(c1)sc1nc(-c3ccc(C(=O)NC4CCN(C)C4)cc3)cn12 (stereo not shown) [compound 286, N-(3-(diethylamino)propyl)-2-(4-((1-methylpyrrolidin-3-yl)carbamoyl)phenyl)benzo [d]imidazo[2,1-b]thiazole-7-carboxamide]
  Myc Efficacy (−LogEC50): ++ (++ ≥5 and <6)

## CCN(CC)CCCNC(=O)c1ccc2c(c1)sc1nc(-c3ccc(C(=O)NC4CCNCC4)cc3)cn12 [compound 287, N-(3-(diethylamino)propyl)-2-(4-(piperidin-4-ylcarbamoyl)phenyl)benzo [d]imidazo[2,1-b]thiazole-7-carboxamide]
  Myc Efficacy (−LogEC50): + (+ >3 and <5)

## CCN(CC)CCCNC(=O)c1ccc2c(c1)sc1nc(-c3ccc(CNC)cc3)cn12 [compound 288, N-(3-(diethylamino)propyl)-2-(4-((methylamino)methyl)phenyl) benzo[d]imidazo[2,1-b]thiazole-7-carboxamide]
  Myc Efficacy (−LogEC50): +++ (+++ ≥6)

## CCN(CC)CCCNC(=O)c1ccc2c(c1)sc1nc(-c3ccc(CN4CCCC4)cc3)cn12 [compound 289, N-(3-(diethylamino)propyl)-2-(4-(pyrrolidin-1-ylmethyl)phenyl)benzo[d] imidazo[2,1-b]thiazole-7-carboxamide]
  Myc Efficacy (−LogEC50): +++ (+++ ≥6)

## NCc1ccc(-c2cn3c(n2)sc2cc(C(=O)NCCCN4CCCCC4)ccc23)cc1 [compound 290, 2-(4-(aminomethyl)phenyl)-N-(3-(piperidin-1-yl)propyl)benzo[d]imidazo [2,1-b]thiazole-7-carboxamide]
  Myc Efficacy (−LogEC50): +++ (+++ ≥6)

## CCN(CC)CCCNC(=O)c1ccc2c(c1)sc1nc(-c3ccc(C(=O)NC)c(F)c3)cn12 [compound 291]
  Myc Efficacy (−LogEC50): + (+ >3 and <5)

## CCN(CC)CCCNC(=O)c1ccc2c(c1)sc1nc(-c3ccc(CNCCOC)cc3)cn12 [compound 292, N-(3-(diethylamino)propyl)-2-(4-(((2-methoxyethyl)amino)methyl)phenyl)benzo[d]imidazo[2,1-b]thiazole-7-carboxamide]
  Myc Efficacy (−LogEC50): +++ (+++ ≥6)

## CCN(CC)CCCNC(=O)c1ccc2c(c1)sc1nc(-c3ccc([C@@H](NC)C(F)(F)F)cc3)cn12 [compound 293, (R)-N-(3-(diethylamino)propyl)-2-(4-(2,2,2-trifluoro-1-(methylamino)ethyl)phenyl) benzo[d]imidazo[2,1-b]thiazole-7-carboxamide]
  Myc Efficacy (−LogEC50): ++ (++ ≥5 and <6)

## CCN(CC)CCCNC(=O)c1ccc2c(c1)sc1nc(-c3ccc([C@H](NC)C(F)(F)F)cc3)cn12 [compound 294, (S)-N-(3-(diethylamino)propyl)-2-(4-(2,2,2-trifluoro-1-(methylamino)ethyl)phenyl) benzo[d]imidazo[2,1-b]thiazole-7-carboxamide]
  Myc Efficacy (−LogEC50): ++ (++ ≥5 and <6)

## CCN(CC)CCCNC(=O)c1ccc2c(c1)sc1nc(-c3ccc(C(=O)NCCNC)cc3)cn12 [compound 295, N-(3-(diethylamino)propyl)-2-(4-((2-(methylamino)ethyl)carbamoyl)phenyl)benzo[d] imidazo[2,1-b]thiazole-7-carboxamide]
  Myc Efficacy (−LogEC50): ++ (++ ≥5 and <6)

## CCN(CC)CCCNC(=O)c1ccc2c(c1)sc1nc(-c3ccc(C(=O)NC4CCNC4)cc3)cn12 (stereo not shown) [compound 296, N-(3-(diethylamino)propyl)-2-(4-(pyrrolidin-3-ylcarbamoyl)phenyl)benzo[d] imidazo[2,1-b]thiazole-7-carboxamide]
  Myc Efficacy (−LogEC50): + (+ >3 and <5)

## CCN(CC)CCCNC(=O)c1ccc2c(c1)sc1nc(-c3ccc(C(=O)NCCN)cc3)cn12 [compound 297, 2-(4-((2-aminoethyl)carbamoyl)phenyl)-N-(3-(diethylamino)propyl)benzo [d]imidazo[2,1-b]thiazole-7-carboxamide]
  Myc Efficacy (−LogEC50): + (+ >3 and <5)

## CCN(CC)CCCNC(=O)c1ccc2c(c1)sc1nc(-c3ccc(CN)cc3F)cn12 [compound 298, 2-(4-(aminomethyl)-2-fluorophenyl)-N-(3-(diethylamino)propyl)benzo [d]imidazo[2,1-b]thiazole-7-carboxamide]
  Myc Efficacy (−LogEC50): +++ (+++ ≥6)

## CCN(CC)CCCNC(=O)c1ccc2c(c1)sc1nc(-c3cccc(CN)c3)cn12 [compound 299, 2-(3-(aminomethyl)phenyl)-N-(3-(diethylamino)propyl) benzo[d]imidazo[2,1-b] thiazole-7-carboxamide]
  Myc Efficacy (−LogEC50): ++ (++ ≥5 and <6)

## CCN(CC)CCCNC(=O)c1ccc2c(c1)sc1nc(-c3ccc(CNC4CC4)cc3)cn12 [compound 300, 2-(4-((cyclopropylamino)methyl)phenyl)-N-(3-(diethylamino)propyl)benzo [d]imidazo[2,1-b]thiazole-7-carboxamide]
  Myc Efficacy (−LogEC50): +++ (+++ ≥6)

## CNC(=O)c1ccc(-c2cn3c(n2)sc2cc(C(=O)N[C@@H]4CCCN(C)C4)ccc23)cc1 [compound 301, (R)-2-(4-(methylcarbamoyl)phenyl)-N-(1-methylpiperidin-3-yl)benzo[d]imidazo[2,1-b]thiazole-7-carboxamide]
  Myc Efficacy (−LogEC50): + (+ >3 and <5)

## CNC(=O)c1ccc(-c2cn3c(n2)sc2cc(C(=O)NCC[C@@H]4CCCN4C)ccc23)cc1 [compound 303, (S)-2-(4-(methylcarbamoyl)phenyl)-N-(2-(1-methylpyrrolidin-2-yl)ethyl)benzo[d]imidazo [2,1-b]thiazole-7-carboxamide]
  Myc Efficacy (−LogEC50): + (+ >3 and <5)

## O=C(NCCCN1CCCCC1)c1ccc2c(c1)sc1nc(-c3ccncc3)cn12 [compound 306, N-(3-(piperidin-1-yl)propyl)-2-(pyridin-4-yl)benzo[d]imidazo[2,1-b]thiazole-7-carboxamide]
  Myc Efficacy (−LogEC50): ++ (++ ≥5 and <6)

## CCN(CC)CCCNC(=O)c1ccc2c(c1)sc1nc(-c3ccc(N4CCOCC4)cc3)cn12 [compound 307, N-(3-(diethylamino)propyl)-2-(4-morpholinophenyl)benzo[d] imidazo[2,1-b]thiazole-7-carboxamide]
  Myc Efficacy (−LogEC50): ++ (++ ≥5 and <6)

## CCN(CC)CCCNC(=O)c1ccc2c(c1)sc1nc(-c3cccc(C4COC4)c3)cn12 [compound 308, N-(3-(diethylamino)propyl)-2-(3-(oxetan-3-yl)phenyl)benzo[d]imidazo [2,1-b]thiazole-7-carboxamide]
  Myc Efficacy (−LogEC50): + (+ >3 and <5)

## CNC(=O)c1ccc(-c2cn3c(n2)sc2cc(C(=O)NCCCN4CCC(F)CC4)ccc23)cc1 [compound 309, N-(3-(4-fluoropiperidin-1-yl)propyl)-2-(4-(methylcarbamoyl)phenyl) benzo[d]imidazo[2,1-b]thiazole-7-carboxamide]
  Myc Efficacy (−LogEC50): ++ (++ ≥5 and <6)

## CNC(=O)c1ccc(-c2cn3c(n2)sc2cc(C(=O)NCCCN4CCCC4)ccc23)cc1 [compound 310, 2-(4-(methylcarbamoyl)phenyl)-N-(3-(pyrrolidin-1-yl)propyl)benzo[d]imidazo [2,1-b]thiazole-7-carboxamide]
  Myc Efficacy (−LogEC50): + (+ >3 and <5)

## CNC(=O)c1ccc(-c2cn3c(n2)sc2cc(NC(=O)CCCN4CCCCC4)ccc23)cc1 [compound 312, N-methyl-4-(7-(4-(piperidin-1-yl)butanamido)benzo[d]imidazo[2,1-b]thiazol-2-yl)benzamide]
  Myc Efficacy (−LogEC50): ++ (++ ≥5 and <6)

## CCN(CC)CCCNC(=O)c1ccc2c(c1)sc1nc(-c3ccc(C4CCOCC4)cc3)cn12 [compound 314, N-(3-(diethylamino)propyl)-2-(4-(tetrahydro-2H-pyran-4-yl)phenyl)benzo[d]imidazo [2,1-b]thiazole-7-carboxamide]
  Myc Efficacy (−LogEC50): + (+ >3 and <5)

## O=C(NCCCN1CCCCC1)c1ccc2c(c1)sc1nc(-c3ccc(C4COC4)cc3)cn12 [compound 315, 2-(4-(oxetan-3-yl)phenyl)-N-(3-(piperidin-1-yl)propyl)benzo[d]imidazo [2,1-b]thiazole-7-carboxamide]
  Myc Efficacy (−LogEC50): ++ (++ ≥5 and <6)

## CNC(=O)c1ccc(-c2cn3c(n2)sc2cc(C(=O)NCCCN4CCCCC4)cnc23)cc1 [compound 317, 2-(4-(methylcarbamoyl)phenyl)-N-(3-(piperidin-1-yl)propyl)imidazo[2′,1′:2,3] thiazolo[4,5-b]pyridine-7-carboxamide]
  Myc Efficacy (−LogEC50): + (+ >3 and <5)

## CCN(CC)CCCNC(=O)c1ccc2c(c1)sc1nc(-c3ccc(C4(N)CC4)cc3)cn12 [compound 318, 2-(4-(1-aminocyclopropyl)phenyl)-N-(3-(diethylamino)propyl)benzo [d]imidazo[2,1-b]thiazole-7-carboxamide]
  Myc Efficacy (−LogEC50): ++ (++ ≥5 and <6)

## CNC(=O)c1ccc(-c2nc3sc4cc(C(=O)NCCCN5CCCCC5)ccc4n3n2)cc1 [compound 319, 2-(4-(methylcarbamoyl)phenyl)-N-(3-(piperidin-1-yl)propyl)benzo[4,5]thiazolo [3,2-b][1,2,4]triazole-6-carboxamide]
  Myc Efficacy (−LogEC50): ++ (++ ≥5 and <6)

## CNC(=O)c1ccc(-c2cn3c(n2)sc2cc(C(=O)NCCCN4CCC(F)CC4)ccc23)c(F)c1 [compound 320, 2-(2-fluoro-4-(methylcarbamoyl)phenyl)-N-(3-(4-fluoropiperidin-1-yl)propyl)benzo[d]imidazo [2,1-b]thiazole-7-carboxamide]
  Myc Efficacy (−LogEC50): +++ (+++ ≥6)

## CNC(=O)c1ccc(-c2cn3c(n2)sc2cc(C(=O)NCCCN4CCCC4)ccc23)c(F)c1 [compound 321, 2-(2-fluoro-4-(methylcarbamoyl)phenyl)-N-(3-(pyrrolidin-1-yl)propyl)benzo[d]imidazo [2,1-b]thiazole-7-carboxamide]
  Myc Efficacy (−LogEC50): ++ (++ ≥5 and <6)

## C#CCCC1(CCNC(=O)c2ccc(-c3cn4c(n3)sc3cc(C(=O)NCCCN(CC)CC)ccc34)cc2)N=N1 [compound 322, 2-(4-((2-(3-(but-3-yn-1-yl)-3H-diazirin-3-yl)ethyl)carbamoyl)phenyl)-N-(3-(diethylamino)propyl) benzo[d]imidazo[2,1-b] thiazole-7-carboxamide]
  Myc Efficacy (−LogEC50): + (+ >3 and <5)
